Consider 25 compounds from patent US11420958B2, “Aryl and heteroaryl substituted indole compounds” (BRISTOL-MYERS SQUIBB COMPANY, priority 2017, dated 2022).

Each structure is given as a SMILES string.

Type in all cases: cell-based
The target of one assay is human TLR8 (Homo sapiens (Human), UniProt Q9NR97). Description: TLR8 inhibition reporter assay (HEK-Blue, SEAP). The note with it: HEK-Blue cells overexpressing human TLR8, R848 15.9 μM stimulation. In outline:
(§1)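 Reporter cells, NF-κB/AP-1-driven SEAP; cmpd 0.05 nM–50 μM final, 30 min RT pre-treat; stim gardiquimod 7.5 μM (TLR7), R848 15.9 μM (TLR8), ODN2006 5 nM (TLR9); 22 h 37 °C; % inhibition of SEAP signal.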

The next assay addresses human TLR7 (Homo sapiens (Human), UniProt Q9NYK1). The experiment in a line: TLR7 inhibition reporter assay (HEK-Blue, SEAP). The note with it: HEK-Blue cells overexpressing human TLR7, gardiquimod 7.5 μM stimulation. In short, it runs like this:
as §1

The target of the next assay is human TLR9 (Homo sapiens (Human), UniProt Q9NR96). Description: TLR9 inhibition reporter assay (HEK-Blue, SEAP). The note with it: HEK-Blue cells overexpressing human TLR9, ODN2006 5 nM stimulation. In outline:
as §1

Chain of human TLR8 (Q9NR97 27-1041): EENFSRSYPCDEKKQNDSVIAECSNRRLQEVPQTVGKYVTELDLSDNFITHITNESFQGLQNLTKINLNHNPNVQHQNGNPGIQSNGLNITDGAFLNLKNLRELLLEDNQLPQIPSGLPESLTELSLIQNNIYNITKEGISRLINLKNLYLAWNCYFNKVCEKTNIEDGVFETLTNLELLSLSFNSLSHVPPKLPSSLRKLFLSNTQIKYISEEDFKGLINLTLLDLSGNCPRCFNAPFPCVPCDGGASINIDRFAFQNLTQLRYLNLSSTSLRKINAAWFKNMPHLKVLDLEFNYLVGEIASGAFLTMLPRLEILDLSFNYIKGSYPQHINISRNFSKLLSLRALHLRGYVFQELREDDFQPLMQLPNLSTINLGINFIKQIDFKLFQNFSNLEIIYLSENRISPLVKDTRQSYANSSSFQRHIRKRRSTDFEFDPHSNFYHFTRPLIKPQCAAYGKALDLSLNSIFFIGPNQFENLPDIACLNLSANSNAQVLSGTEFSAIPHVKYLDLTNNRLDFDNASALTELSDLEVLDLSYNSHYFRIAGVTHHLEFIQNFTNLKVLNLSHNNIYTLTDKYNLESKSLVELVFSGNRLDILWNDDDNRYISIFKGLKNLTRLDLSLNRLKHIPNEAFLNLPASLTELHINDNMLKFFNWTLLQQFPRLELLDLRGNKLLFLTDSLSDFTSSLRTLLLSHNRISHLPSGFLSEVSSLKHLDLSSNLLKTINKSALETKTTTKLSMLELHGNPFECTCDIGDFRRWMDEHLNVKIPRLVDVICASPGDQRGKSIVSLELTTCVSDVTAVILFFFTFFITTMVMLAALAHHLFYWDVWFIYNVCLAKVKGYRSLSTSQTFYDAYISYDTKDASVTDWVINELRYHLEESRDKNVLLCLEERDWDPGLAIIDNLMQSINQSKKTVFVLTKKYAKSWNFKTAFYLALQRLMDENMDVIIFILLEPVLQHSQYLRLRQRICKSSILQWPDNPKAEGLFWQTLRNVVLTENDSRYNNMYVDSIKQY
Chain of human TLR9 (Q9NR96 26-1032): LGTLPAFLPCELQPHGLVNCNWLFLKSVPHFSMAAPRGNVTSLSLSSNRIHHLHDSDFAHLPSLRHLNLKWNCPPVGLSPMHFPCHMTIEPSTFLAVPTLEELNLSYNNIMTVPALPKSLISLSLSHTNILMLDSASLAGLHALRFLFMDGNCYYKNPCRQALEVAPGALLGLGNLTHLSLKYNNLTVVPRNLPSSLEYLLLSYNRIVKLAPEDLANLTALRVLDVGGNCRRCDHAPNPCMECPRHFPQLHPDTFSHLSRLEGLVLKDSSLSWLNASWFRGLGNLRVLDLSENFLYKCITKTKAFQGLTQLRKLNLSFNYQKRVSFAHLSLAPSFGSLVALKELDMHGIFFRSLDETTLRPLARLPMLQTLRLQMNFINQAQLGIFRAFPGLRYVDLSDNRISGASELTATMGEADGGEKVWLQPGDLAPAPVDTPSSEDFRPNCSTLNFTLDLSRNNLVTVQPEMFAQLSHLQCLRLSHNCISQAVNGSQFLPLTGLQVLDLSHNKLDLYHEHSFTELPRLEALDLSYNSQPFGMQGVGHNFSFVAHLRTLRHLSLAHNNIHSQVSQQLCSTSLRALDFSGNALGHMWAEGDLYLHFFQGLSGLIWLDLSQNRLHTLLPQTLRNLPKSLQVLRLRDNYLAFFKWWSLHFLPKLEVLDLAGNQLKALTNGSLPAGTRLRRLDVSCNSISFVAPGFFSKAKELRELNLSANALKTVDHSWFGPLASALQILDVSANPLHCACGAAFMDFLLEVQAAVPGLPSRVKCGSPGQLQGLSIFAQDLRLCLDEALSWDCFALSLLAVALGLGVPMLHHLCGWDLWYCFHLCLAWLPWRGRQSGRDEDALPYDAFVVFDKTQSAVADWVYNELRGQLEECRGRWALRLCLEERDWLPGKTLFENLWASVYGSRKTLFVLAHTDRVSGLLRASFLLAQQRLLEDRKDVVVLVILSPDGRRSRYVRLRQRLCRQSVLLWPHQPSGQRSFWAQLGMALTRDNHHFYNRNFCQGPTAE
Chain of human TLR7 (Q9NYK1 27-1049): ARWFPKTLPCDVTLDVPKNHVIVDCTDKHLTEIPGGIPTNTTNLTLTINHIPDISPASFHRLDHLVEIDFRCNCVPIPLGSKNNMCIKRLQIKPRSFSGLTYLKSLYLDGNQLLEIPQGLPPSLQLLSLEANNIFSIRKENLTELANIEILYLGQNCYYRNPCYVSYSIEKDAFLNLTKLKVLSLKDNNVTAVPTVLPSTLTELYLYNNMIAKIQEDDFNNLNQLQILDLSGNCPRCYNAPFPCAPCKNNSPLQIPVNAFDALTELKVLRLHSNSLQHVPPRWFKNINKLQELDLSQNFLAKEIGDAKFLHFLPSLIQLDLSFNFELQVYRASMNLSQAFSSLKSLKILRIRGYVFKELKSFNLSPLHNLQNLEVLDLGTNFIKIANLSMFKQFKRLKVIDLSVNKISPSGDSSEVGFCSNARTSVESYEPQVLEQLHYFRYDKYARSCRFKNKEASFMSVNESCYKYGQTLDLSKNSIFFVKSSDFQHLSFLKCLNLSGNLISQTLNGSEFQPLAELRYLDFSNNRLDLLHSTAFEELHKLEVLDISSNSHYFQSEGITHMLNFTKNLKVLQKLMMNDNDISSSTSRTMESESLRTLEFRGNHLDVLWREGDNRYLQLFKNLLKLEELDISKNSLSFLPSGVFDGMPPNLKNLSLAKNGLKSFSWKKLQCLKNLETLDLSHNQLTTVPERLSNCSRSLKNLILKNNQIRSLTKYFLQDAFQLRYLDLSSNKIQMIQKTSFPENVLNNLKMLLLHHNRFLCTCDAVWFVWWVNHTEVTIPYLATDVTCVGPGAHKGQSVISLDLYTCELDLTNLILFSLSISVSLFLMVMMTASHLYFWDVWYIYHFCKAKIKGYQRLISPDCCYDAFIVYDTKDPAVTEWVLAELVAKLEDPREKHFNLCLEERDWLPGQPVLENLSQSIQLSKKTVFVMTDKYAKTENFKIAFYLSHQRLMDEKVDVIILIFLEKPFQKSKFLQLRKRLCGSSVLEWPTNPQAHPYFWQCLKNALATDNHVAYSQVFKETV

Regarding `Cc1cc(-c2[nH]c3ccc(-c4cc5c(s4)CN(Cc4c[nH]c(C)n4)CC5)cc3c2C(C)C)cc(C)n1` [Example 343, 2-(2-(2,6-dimethylpyridin-4-yl)-3-isopropyl-1H-indol-5-yl)-6-((2-methyl-1H-imidazol-4-yl)methyl)-4,5,6,7-tetrahydrothieno[2,3-c]pyridine], the IC50 at human TLR8 stood at 1.3 nM; against human TLR7, 3.7 nM; on human TLR9, 146 nM.
Turning to `CC(C)c1c(-c2ccnc3[nH]ncc23)[nH]c2ccc(-c3nnc([C@@H]4CCCNC4)o3)cc12` [Example 103, (R)-2-(3-isopropyl-2-(1H-pyrazolo[3,4-b]pyridin-4-yl)-1H-indol-5-yl)-5-(piperidin-3-yl)-1,3,4-oxadiazole], the figures for the IC50 against human TLR8, against human TLR7 and against human TLR9 were 5.4 nM, 54 nM and 166 nM, respectively.
Consider `Cc1cc(-c2[nH]c3ccc(-c4nnc(C5CCCN(C(C)C)C5)[nH]4)cc3c2C(C)C)cc(C)n1` (stereo not drawn) [Example 357, 2-(2,6-dimethylpyridin-4-yl)-3-isopropyl-5-(5-(1-isopropylpiperidin-3-yl)-4H-1,2,4-triazol-3-yl)-1H-indole], for which the IC50 against human TLR8 is 1.4 nM; at human TLR7, 4.4 nM; against human TLR9, 205 nM.
On to `Cc1cc(-c2[nH]c3ccc(-c4csc(N5CCCCC5)n4)cc3c2C(C)C)cc(C)n1` [Example 350, 4-(2-(2,6-dimethylpyridin-4-yl)-3-isopropyl-1H-indol-5-yl)-2-(piperidin-1-yl)thiazole], for which the values for the half-inhibitory concentration (IC50) at human TLR8, on human TLR7 and against human TLR9 were 685 nM, 742 nM and > 50000 nM, respectively.
`Cc1cc(-c2[nH]c3ccc(-c4nc(C(=O)NCC5CCNC5)co4)cc3c2C(C)C)cc(C)n1` (stereo not drawn) [Example 276, 2-(2-(2,6-dimethylpyridin-4-yl)-3-isopropyl-1H-indol-5-yl)-N-(pyrrolidin-3-ylmethyl)oxazole-4-carboxamide]: the IC50 worked out at 26 nM against human TLR8, 49 nM against human TLR7 and 1080 nM on human TLR9.
On the same counts, the results for `Cc1cc(-c2[nH]c3ccc(-c4nnc(N)o4)cc3c2C(C)C)ccn1` [Example 174, 5-(3-isopropyl-2-(2-methylpyridin-4-yl)-1H-indol-5-yl)-1,3,4-oxadiazol-2-amine] are 14 nM, 53 nM and 44300 nM.
Turning to `Cc1cn2cc(-c3[nH]c4ccc(-c5ccc(N6CCN(C)CC6)nc5)cc4c3C(C)C)ccc2n1` [Example 333, 6-(3-isopropyl-5-(6-(4-methylpiperazin-1-yl)pyridin-3-yl)-1H-indol-2-yl)-2-methylimidazo[1,2-a]pyridine], the 50% inhibitory concentration (IC50) on human TLR8 came to 91 nM; at human TLR7 it was 14 nM; against human TLR9 it was 114 nM.
On the same counts, the results for `Cc1cc(-c2[nH]c3ccc(-c4nnc(CC5CCCCN5)o4)cc3c2C(C)C)ccn1` (stereo not drawn) [Example 138, 2-(3-isopropyl-2-(2-methylpyridin-4-yl)-1H-indol-5-yl)-5-(piperidin-2-ylmethyl)-1,3,4-oxadiazole] are 1.4 nM, 26 nM and 542 nM.
The matching figures for `CNC(=O)c1ccc(-c2ccc3[nH]c(-c4cc(C)nc(C)c4)c(C(C)C)c3c2)cn1` [Example 316, 5-(2-(2,6-dimethylpyridin-4-yl)-3-isopropyl-1H-indol-5-yl)-N-methylpicolinamide]: 65 nM, 28 nM and > 50000 nM.
Regarding `CC(C)c1c(-c2ccnc3[nH]ncc23)[nH]c2ccc(-c3ccnn3C)cc12` [Example 428, 4-(3-isopropyl-5-(1-methyl-1H-pyrazol-5-yl)-1H-indol-2-yl)-1H-pyrazolo[3,4-b]pyridine], the 50% inhibitory concentration (IC50) amounted to 12 nM against human TLR8, 194 nM on human TLR7 and 14500 nM on human TLR9.
The matching figures for `COc1ccc(-c2[nH]c3ccc(-c4cnc(N5CCN(C6CCC6)CC5)nc4)cc3c2C(C)C)cc1OC` [Example 436, 5-(2-(4-cyclobutylpiperazin-1-yl)pyrimidin-5-yl)-2-(3,4-dimethoxyphenyl)-3-isopropyl-1H-indole]: 331 nM, 1490 nM and 11100 nM.
The matching figures for `CCc1c(-c2ccc(OC)c(OC)c2)[nH]c2ccc(-c3noc([C@H]4CCC[C@@]4(C)N)n3)cc12` [Example 442, (1R,2S)-2-(3-(2-(3,4-dimethoxyphenyl)-3-ethyl-1H-indol-5-yl)-1,2,4-oxadiazol-5-yl)-1-methylcyclopentan-1-amine]: 90 nM, 903 nM and 4580 nM.
Regarding `CC(C)c1c(-c2ccnc3[nH]ncc23)[nH]c2ccc(-c3nnc(C4CCCN(C)C4)o3)cc12` (stereo not drawn) [Example 168, 2-(3-isopropyl-2-(1H-pyrazolo[3,4-b]pyridin-4-yl)-1H-indol-5-yl)-5-(1-methylpiperidin-3-yl)-1,3,4-oxadiazole], the figures for the IC50 against human TLR8, at human TLR7 and against human TLR9 were 1.9 nM, 81 nM and 1080 nM, respectively.
For the compound `COc1ccc(-c2[nH]c3ccc(-c4ccnc(C(=O)N5CCCN(C)CC5)c4)cc3c2C(C)C)cc1OC` [Example 10, (4-(2-(3,4-dimethoxyphenyl)-3-isopropyl-1H-indol-5-yl)pyridin-2-yl)(4-methyl-1,4-diazepan-1-yl)methanone], the results for the concentration for half-maximal inhibition (IC50) at human TLR8, on human TLR7 and on human TLR9 were 6 nM, 35 nM and 673 nM, respectively.
On to `CCc1c(-c2ccnc(C)c2)[nH]c2ccc(-c3noc(C4CCNC4)n3)cc12` (stereo not drawn) [Example 456, 3-(3-ethyl-2-(2-methylpyridin-4-yl)-1H-indol-5-yl)-5-(pyrrolidin-3-yl)-1,2,4-oxadiazole], for which the values for the half-inhibitory concentration (IC50) against human TLR8, at human TLR7 and against human TLR9 were 18 nM, 78 nM and 593 nM, respectively.
The matching figures for `Cc1cc(-c2[nH]c3ccc(-c4cc5c(s4)CN(C(=O)CN(C)C)CC5)cc3c2C(C)C)ccn1` [Example 305, 2-(dimethylamino)-1-(2-(3-isopropyl-2-(2-methylpyridin-4-yl)-1H-indol-5-yl)-4,7-dihydrothieno[2,3-c]pyridin-6(5H)-yl)ethan-1-one]: 13 nM, 21 nM and 4110 nM.
For the compound `Cc1cc(-c2[nH]c3ccc(-c4nc(C(=O)NCC5CCNC5)co4)cc3c2C(C)C)ccn1` (stereo not drawn) [Example 197, 2-(3-isopropyl-2-(2-methylpyridin-4-yl)-1H-indol-5-yl)-N-(pyrrolidin-3-ylmethyl)oxazole-4-carboxamide], the values for the IC50 against human TLR8, on human TLR7 and against human TLR9 were 61 nM, 440 nM and 13000 nM, respectively.
Take `COc1ccc(-c2[nH]c3ccc(-c4nnc(C5CCN(C6CCN(C)CC6)CC5)o4)cc3c2C(C)C)cc1OC` [Example 21, 2-(2-(3,4-dimethoxyphenyl)-3-isopropyl-1H-indol-5-yl)-5-(1′-methyl-[1,4′-bipiperidin]-4-yl)-1,3,4-oxadiazole]: the IC50 turned out to be 20 nM at human TLR8, 60 nM against human TLR7 and 626 nM against human TLR9.
With `COc1ccc(-c2[nH]c3ccc(-c4ccc(NCC5CCN(C)C5)cc4)cc3c2C(C)C)cc1OC` (stereo not drawn) [Example 386, 4-(2-(3,4-dimethoxyphenyl)-3-isopropyl-1H-indol-5-yl)-N-((1-methylpyrrolidin-3-yl)methyl)aniline], the values for the half-maximal inhibitory concentration (IC50) at human TLR8, at human TLR7 and at human TLR9 were 9.6 nM, 169 nM and 3710 nM, respectively.
In the case of `CCOC(=O)N1CCC(NC(=O)c2coc(-c3ccc4[nH]c(-c5cc(C)nc(C)c5)c(C(C)C)c4c3)n2)CC1` [Example 283, ethyl 4-(2-(2-(2,6-dimethylpyridin-4-yl)-3-isopropyl-1H-indol-5-yl)oxazole-4-carboxamido)piperidine-1-carboxylate], the values for the IC50 against human TLR8, against human TLR7 and at human TLR9 were 9.3 nM, 147 nM and 2360 nM, respectively.
Take `Cc1cc(-c2[nH]c3ccc(-c4nnc(CN5CCN(C)CC5)o4)cc3c2C(C)C)ccn1` [Example 79, 2-(3-isopropyl-2-(2-methylpyridin-4-yl)-1H-indol-5-yl)-5-((4-methylpiperazin-1-yl)methyl)-1,3,4-oxadiazole]: the IC50 against human TLR8 was determined as 7.5 nM; at human TLR7, 65 nM; on human TLR9, 1250 nM.
The matching figures for `Cc1cc(-c2[nH]c3ccc(-c4nnc(C(=O)N5CCC(N)CC5)o4)cc3c2C(C)C)cc(C)n1` [Example 230, (4-aminopiperidin-1-yl)(5-(2-(2,6-dimethylpyridin-4-yl)-3-isopropyl-1H-indol-5-yl)-1,3,4-oxadiazol-2-yl)methanone]: 9.3 nM, 19 nM and 343 nM.
On the same counts, the results for `Cc1cc(-c2[nH]c3ccc(-c4nnc([C@H]5CCNC5)o4)cc3c2C(C)C)ccn1` [Example 146, (S)-2-(3-isopropyl-2-(2-methylpyridin-4-yl)-1H-indol-5-yl)-5-(pyrrolidin-3-yl)-1,3,4-oxadiazole] are 3 nM, 15 nM and 651 nM.
For the compound `Cc1cc(-c2[nH]c3ccc(-c4ccc(N5CCN(C(C)C)CC5)nc4)cc3c2C(C)C)cc(C)n1` [Example 306, 2-(2,6-dimethylpyridin-4-yl)-3-isopropyl-5-(6-(4-isopropylpiperazin-1-yl)pyridin-3-yl)-1H-indole], the half-maximal inhibitory concentration (IC50) at human TLR8 stood at 4.8 nM; at human TLR7 it was 4.8 nM; against human TLR9 it was 289 nM.
Consider `Cc1cc(-c2[nH]c3ccc(-c4nnc(CN5CCNCC5)o4)cc3c2C(C)C)ccn1` [Example 140, 2-(3-isopropyl-2-(2-methylpyridin-4-yl)-1H-indol-5-yl)-5-(piperazin-1-ylmethyl)-1,3,4-oxadiazole], for which the IC50 on human TLR8 worked out at 5.2 nM; against human TLR7, 67 nM; at human TLR9, 468 nM.
